Test results taken from patent publication US9919058B2, “Polyketal particles including a CpG oligodeoxynucleotide for the treatment of lung cancer” (THE UNITED STATES OF AMERICA, as represented by the …, priority 2014, dated 2018).
Read-outs that look alike come from different tables or passages of the source.

What was measured:
Rat = details: in vivo, po; cited from earlier work
large established tumor = details: 3M-052 co-delivered with CpG ODN into the tumor site; tumor size over 500 mm(3); cited from earlier work
[1] = tested on: Lewis lung carcinoma (LLC1) cells
Protocol: Treatment Protocols and Tumor Cell Implantation: C57BL/6, TLR9 KO and Rag1 KO mice were obtained from the National Cancer Institute (Frederick, Md.) and studied at 5-6 wk of age. […] On the day of inoculation, cultured cells were trypsinized, washed and suspended in 0.9% saline.
One week later, free ODN or ODN-NP were administered either systemically (i.p.) or locally (i.t.). Instillation was achieved via orotracheal intubation using a 20 gauge 1″ catheter (TERUMO, Somerset, N.J.) under anesthesia. Survival curves were generated from 4-6 mice per group and all results derived by combining data from 2-4 independent experiments. All animals were monitored 3×/wk and moribund mice euthanized as per Institutional Animal Care and Use Committee protocol.
Statistical Analysis: Statistical analyses were performed using MedCalc, version 13.0 (MedCalc Software, Mariakerke, Belgium). Differences in survival were determined using the log rank test of Kaplan-Meier. Differences between groups were assessed using a one-way ANOVA followed by Student-Newman-Keuls post-hoc test. […] All values are expressed as mean±SE.

[2] = tested on: Spleen cells from WT or TLR9 KO mice; assay: In vitro stimulation of spleen cells (CCK-8 proliferation; IL-6/IL-12 ELISA); format: cell-based
Protocol: FIGS. 2A-2C. In vitro activity of CpG-NP (aggregates provided microprticles “MP’). Spleen cells from WT or TLR9 KO mice were cultured with 1 μM of free or NP adsorbed CpG ODN or 1 μg/mL of R837 (TLR7 ligand). 2A) Cell proliferation after 72 hr. 2B, 2C) IL-12 and IL-6 production after 24 hr.
In Vitro Cell Proliferation Assay: Single spleen cell suspensions were prepared. 5×10^4 cells/well were cultured in 96-well flat bottomed microtiter plates in complete RPMI 1640 medium supplemented with 10% fetal calf serum, 100 U/mL penicillin, […], […], 1.0 mmol/L sodium pyruvate, NEAA, and 0.0035% 2-ME. The cells were stimulated free ODN, ODN-NP, or R837 (TLR7 agonist) for 72 hr. Cell proliferation was assessed using the CCK-8 assay as per manufacturer's recommendation (Dojindo molecular technologies, Inc. Rockville, Md.).
ELISA: Cytokine levels in BAL, serum, and culture supernatants were measured by ELISA as previously described (Klinman et al., PNAS 1996; 93:2879-2883). Briefly, paired IL-6 and IL-12-specific mAbs were purchased from BD Pharmingen. Ninety-six-well Immulon H2B plates (Thermo LabSystems, Beverly, Mass.) were coated with capture cytokine-specific Abs and then blocked with PBS/1% BSA. Samples were added and bound cytokine detected by the addition of biotin-labeled secondary Ab, followed by phosphatase-conjugated avidin and a phosphatase-specific colorimetric substrate. Standard curves were generated using recombinant cytokines purchased from R&D Systems (Minneapolis, Minn.).

Immune Cells = assay: BAL cellularity and IL-12 after i.t. delivery to normal mice; format: in vivo; details: 50 μg i.t., BAL 2 days later
Protocol: FIGS. 4A-4B. Activity of CpG-NP (aggregates provided microprticles “MP’) in vivo. 50 μg of CpG ODN (free or adsorbed onto NP) was administered i.t. to normal mice. BAL was collected and analyzed for (4A) cellularity and (4B) IL-12 levels 2 days later.
Tissue Collection and Evaluation of Tumor Development: Bronchoalveolar lavage (BAL) fluid was obtained by tracheal cannulation of anesthetized mice. Cell differentials were performed on cytocentrifuged BAL preparations after fixation and staining with Diff-Quick (Dade Behring, Newark, Del.).
IL-12 levels in BAL and serum were determined by ELISA. Lungs were inflated and fixed by instilling 1 mL of 10% neutral-buffered formalin or periodate lysine paraformaldehyde (PLP) fixative (Wako Chemicals USA, Inc. Richmond, Va.) at 20 cm H2O. Fixed tissue was embedded in paraffin, sectioned, and stained with hematoxylin and eosin for histopathological assessment. Tumor area was evaluated in mid-line sections and quantified using Image J software ver.1.48 (National Institute of Health, Bethesda, Md.).
ELISA: Cytokine levels in BAL, serum, and culture supernatants were measured by ELISA as previously described (Klinman et al., PNAS 1996; 93:2879-2883). […] Samples were added and bound cytokine detected by the addition of biotin-labeled secondary Ab, followed by phosphatase-conjugated avidin and a phosphatase-specific colorimetric substrate. […]

[3] = mouse, in vivo
Protocol: Biodistribution of CpG ODN. LLC were implanted as described in FIG. 1. […] Tissue samples were stained to identify macrophages (red F4/80^+), DC (red CD205^+) or CpG (green) and analyzed by confocal microscopy.
Immunohistochemistry and Immunofluorescent Analysis: Tissue sections were deparaffinized with xylene and rehydrated with graded ethanol. Endogenous peroxidase activity was blocked by incubation with 0.3% H2O2 in methanol for 30 min followed by Protein Block (Dako, Carpinteria, Calif.). […] Isotype matched negative controls were included to insure specificity.
For immunohistochemistry, stained sections were incubated with HRP-conjugated anti-rat or rabbit IgG (simple stain mouse Max Po; Nichirei, Tokyo, Japan) plus 3-amino-9-ethyl carbazole (AEC) substrate for color development (Nichirei). The sections were counterstained with Mayer's hematoxylin (Dako) and images were obtained using an IX50 inverted microscope equipped with digital imaging system (Olympus, Center Valley, Pa.). […] Cell nuclei were visualized with DAPI (Vector). […] Fluorescent images were acquired with a laser-scanning confocal microscope (LSM 510; Zeiss, Thronwood, N.Y.), equipped with a 63x/1.4NA oil objective.

advanced NSCLC = details: cited from earlier work
Lewis lung cancer = details: CpG ODN in combination with chemotherapy; cited from earlier work
[4] = in vivo; cited from earlier work

In the case of `OCC1CCC(CO)CC1` (centres unmarked) [1,4-cyclohexanedimethanol], the LD50 (Rat) is listed as 3,200 mg/kg.
In the case of `CCCCCCCCCCCCCCCCCC(=O)NCCCCOn1c(CCCC)nc2c(N)nc3ccccc3c21` [3M-052, N-(4-{[4-amino-2-butyl-1H-imidazo[4,5-c]quinolin-1-yl]oxy}butyl) octadecanamide], the “effect on established tumor” value (large established tumor) is given as “eliminated the large established tumor”.
With GCTAGACGTTAGCGT [CpG ODN] the median survival time ([1]; 50 μg i.t. weekly for one month from day 7, C57BL/6, untreated 22 days) was 38 days, the “HR (survival vs No Rx)” value ([1]; dose of ODN 10 μg) was 0.33 and the long term survival ([1]; dose of ODN 10 μg weekly for one month) was < 40%. For the same compound, the long term survival ([1]; dose of ODN 50 μg weekly for one month) was > 80%, the toxicity ([1]; dose of ODN 100 μg) was “evidence of toxicity (pulmonary inflammation and weight loss)” and the “HR (survival vs No Rx)” value ([1]; intra-tracheal (i.t.) delivery, 50 μg) was 0.28. For the same compound, the “tumors on re-challenge of survivors with LLC” value ([1]; survivors of therapy re-challenged) was “no tumors arose”, the “HR (survival vs No Rx)” value ([1]; systemic (i.p.) delivery) was 0.55 and the “effect on survival” value ([1]; systemic (i.p.) delivery) was “modest but statistically insignificant survival benefit”. For the same compound, the “response of cells from TLR9 KO mice” value ([2]; TLR9 KO spleen cells) was “failed to respond”, the “IL-6 and IL-12 secretion” value ([2]; WT spleen cells, 1 μM, 24 hr) was “induced WT cells to secrete IL-6 and IL-12” and the cell proliferation ([2]; WT spleen cells, 1 μM, 3 days (72 hr)) was “proliferate over 3 days”. The “relative effectiveness of free CpG vs CpG-NP” value ([2]; WT spleen cells, 24 hr vs 3 days of culture) was “more effective at the earlier time point”, the “pulmonary IL-12 levels” value (Immune Cells) was “significant increase in pulmonary IL-12 levels” and the “rise in BAL cellularity vs saline” value (Immune Cells; normal mice) was “≈ 25%”. For the same compound, the “clearance from the lungs” value [3] was “rapidly cleared from the lungs”, the localisation in lung [3] was “detected throughout the mucosal surface of the bronchial tree” and the “localisation/persistence in lung and tumor” value [3] was “little of this material remained in the bronchi or could be detected in the tumor”. The objective response rate (advanced NSCLC; patients who received CpG ODN, chemotherapy alone 19-23%) was 28-30%, the “survival benefit in phase 3 trials” value (advanced NSCLC; patients with NSCLC, phase 3) was “no survival benefit was observed” and the effect on survival (Lewis lung cancer) was “significantly prolonged survival”. The “mean t1/2” value [4] was “≈ 12 h” and the median tmax [4] was 2 h.
In the case of “GCTAGAGCTTAGCGT [control ODN, reference compound]”, the “effect on survival” value ([1]; i.t. delivery) is reported as “no effect”.
